Data: paper PMC6469989 (ACS chemical biology, 2018)

Assays:
Type in all cases: cell-based
[1] = test system: mutant ERα (Y537S, D538G, L536R); assay: Inhibition of mutant ERα-mediated transcription; conditions: MCF-7 cells, 100 nM, 24 hours
[2] = test system: MCF-7 cells expressing doxycycline-inducible WT ERα; assay: Inhibition of MCF-7 cell proliferation driven by WT ERα; conditions: Homo sapiens, MCF7, 120 h, read-out: Inhibition of Proliferation IC50 (nM ± SD)
[3] = test system: MCF-7 cells expressing doxycycline-inducible L536R mutant ERα; assay: Inhibition of MCF-7 cell proliferation driven by L536R mutant ERα; conditions: Homo sapiens, MCF7, 120 h, read-out: Inhibition of Proliferation IC50 (nM ± SD)
[4] = test system: MCF-7 cells expressing doxycycline-inducible Y537S mutant ERα; assay: cells; conditions: Homo sapiens, MCF7, 120 h, read-out: Inhibition of Proliferation IC50 (nM ± SD)
[5] = test system: MCF-7 cells expressing doxycycline-inducible D538G mutant ERα; assay: Inhibition of MCF-7 cell proliferation driven by D538G mutant ERα; conditions: Homo sapiens, MCF7, 120 h, read-out: Inhibition of Proliferation IC50 (nM ± SD)

SMILES | inhibition of mutant ER transcriptional activity (in words) [1] | IC50 [2] [nM] | IC50 [3] [nM] | IC50 [4] [nM] | IC50 [5] [nM]
C[C@]12C[C@H](c3ccc(OCCCCCS(=O)(=O)CCCC(F)(F)C(F)(F)F)cc3)[C@@H]3c4ccc(O)cc4CC[C@H]3[C@@H]1CC[C@@H]2O [RU58668] | block much of the activity of all three mutants |  |  |  | 
C[C@]12CC[C@@H]3c4ccc(O)cc4C[C@@H](CCCCCCCCC[S+]([O-])CCCC(F)(F)C(F)(F)F)[C@H]3[C@@H]1CC[C@@H]2O (some centres unmarked) [fulvestrant] |  | 0.31 ± 0.03 | 2.6 ± 0.4 | 16 ± 1.8 | 5.9 ± 0.6
